{"source": "patent US9334269B2", "about": "“Carboxamides as inhibitors of voltage-gated sodium channels” (AMGEN INC., priority 2010, dated 2016)", "data": [{"target": "T1, human Nav1.7 (hNav1.7) (Homo sapiens, UniProt Q15858)", "T1 construct": "expressed in transfected cells", "T1 sequence (Q15858 whole entry)": "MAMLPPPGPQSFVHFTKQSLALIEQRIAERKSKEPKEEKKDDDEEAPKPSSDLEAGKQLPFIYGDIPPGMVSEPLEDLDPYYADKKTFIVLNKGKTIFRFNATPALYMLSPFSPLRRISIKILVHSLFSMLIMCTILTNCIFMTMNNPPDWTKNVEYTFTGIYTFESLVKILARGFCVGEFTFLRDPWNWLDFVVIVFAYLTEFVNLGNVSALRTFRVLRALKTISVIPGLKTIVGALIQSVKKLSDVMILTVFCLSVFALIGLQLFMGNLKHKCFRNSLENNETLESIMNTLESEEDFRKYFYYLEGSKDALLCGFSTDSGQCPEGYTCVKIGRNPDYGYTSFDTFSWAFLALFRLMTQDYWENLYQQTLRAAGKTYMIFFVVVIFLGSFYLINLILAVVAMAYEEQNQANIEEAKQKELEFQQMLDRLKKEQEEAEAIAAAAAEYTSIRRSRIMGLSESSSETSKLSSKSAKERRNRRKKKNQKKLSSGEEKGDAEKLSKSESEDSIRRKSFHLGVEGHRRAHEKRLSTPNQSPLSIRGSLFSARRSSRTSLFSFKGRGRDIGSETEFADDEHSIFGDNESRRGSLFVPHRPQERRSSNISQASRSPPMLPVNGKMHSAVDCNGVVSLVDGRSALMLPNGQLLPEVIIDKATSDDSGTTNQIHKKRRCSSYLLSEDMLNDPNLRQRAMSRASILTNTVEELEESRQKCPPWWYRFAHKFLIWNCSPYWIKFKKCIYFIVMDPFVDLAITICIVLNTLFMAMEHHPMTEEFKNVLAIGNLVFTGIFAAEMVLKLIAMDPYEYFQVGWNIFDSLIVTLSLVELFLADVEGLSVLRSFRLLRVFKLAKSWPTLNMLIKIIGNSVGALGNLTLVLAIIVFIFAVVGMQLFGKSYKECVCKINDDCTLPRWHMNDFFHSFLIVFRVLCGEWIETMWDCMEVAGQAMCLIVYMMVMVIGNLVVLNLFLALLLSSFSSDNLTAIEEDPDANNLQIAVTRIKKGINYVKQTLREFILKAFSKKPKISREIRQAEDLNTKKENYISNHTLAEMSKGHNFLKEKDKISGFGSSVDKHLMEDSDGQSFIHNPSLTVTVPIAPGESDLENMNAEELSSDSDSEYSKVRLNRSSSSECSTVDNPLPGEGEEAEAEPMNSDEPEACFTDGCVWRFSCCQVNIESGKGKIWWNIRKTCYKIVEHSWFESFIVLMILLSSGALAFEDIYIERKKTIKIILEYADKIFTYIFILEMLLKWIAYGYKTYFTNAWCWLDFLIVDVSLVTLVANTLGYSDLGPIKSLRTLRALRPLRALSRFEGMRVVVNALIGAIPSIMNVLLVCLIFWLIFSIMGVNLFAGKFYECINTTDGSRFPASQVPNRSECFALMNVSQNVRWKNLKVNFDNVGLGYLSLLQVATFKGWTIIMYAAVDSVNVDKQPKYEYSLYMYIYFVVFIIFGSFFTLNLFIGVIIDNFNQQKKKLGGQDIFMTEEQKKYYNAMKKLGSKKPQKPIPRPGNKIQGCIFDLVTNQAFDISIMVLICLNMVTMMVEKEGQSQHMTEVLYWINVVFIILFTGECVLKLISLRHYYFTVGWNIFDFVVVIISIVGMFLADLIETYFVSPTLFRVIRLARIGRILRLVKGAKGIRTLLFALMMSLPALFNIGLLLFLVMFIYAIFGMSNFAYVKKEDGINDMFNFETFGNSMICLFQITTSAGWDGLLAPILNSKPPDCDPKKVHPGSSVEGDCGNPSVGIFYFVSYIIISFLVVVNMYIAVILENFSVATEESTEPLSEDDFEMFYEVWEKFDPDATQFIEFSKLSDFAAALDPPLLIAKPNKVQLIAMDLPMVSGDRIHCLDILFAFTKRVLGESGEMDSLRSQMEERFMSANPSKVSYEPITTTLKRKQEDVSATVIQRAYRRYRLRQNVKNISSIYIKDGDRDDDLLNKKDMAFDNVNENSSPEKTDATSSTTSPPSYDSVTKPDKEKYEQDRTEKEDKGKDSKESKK", "experiment": "hNav1.7 whole-cell patch-clamp electrophysiology (automated PatchXpress 7000A or manual) in stably expressing 293 cells", "format": "cell-based", "conditions": "average IC50, human Nav1.7", "protocol": "Compounds were tested on human Nav1.7 (hNav1.7) expressed stably in 293 cells, which have no endogenous sodium channels. Two forms of whole-cell patch-clamp assays were used. In both, peak current through Nav1.7 was evoked by a depolarizing voltage pulse, and currents were monitored as a function of time in response to exposure to several different concentrations of drug. Automated electrophysiology uses the PatchXpress 7000A system. Up to sixteen cells at a time were voltage-clamped in parallel, and the steady-state voltage dependence of inactivation was determined experimentally for each cell. For each cell, fractional inactivation was set at 20%, and peak current through Nav1.7 as a function of time was measured in response to increasing concentrations of test compound. Manual electrophysiology refers to conventional whole-cell patch-clamping (Hamill et al., 1981). After formation of the whole-cell clamp, cells were lifted off the bottom of the dish with the patch pipette and positioned directly in front of an array of glass microperfusion tubes each with internal diameter about 250 microns, with individual compound concentrations flowing from each tube. Current as a function of time in response to increasing drug concentrations was measured with Nav1.7 fully in the resting state (holding voltage set to −140 mV) and on the same cells with the holding voltage set to produce about 20% inactivation. Compounds were not applied for a prespecified time, but for as long as required to achieve a stable level of block. For both forms of electrophysiology, offline analysis was used to correct for rundown of channel current and to determine percent inhibition as a function of drug concentration. IC50 were determined by fitting to the Hill equation.", "units": {"IC50": "µM"}, "values": [{"smiles": "CNC(=O)c1cccc(Nc2ncnc(NCCCOc3ccc(OC(F)(F)F)cc3)n2)c1", "note": "[Example 13]", "IC50": 0.27}, {"smiles": "CNC(=O)c1cc(Nc2ncnc(N3CC(Oc4ccc(Cl)cc4F)C3)n2)ccc1F", "note": "[Example 14]", "IC50": 0.28}, {"smiles": "CNC(=O)c1cccc(Nc2ncnc(N3CC(Oc4ccc(F)c(Cl)c4)C3)n2)c1", "note": "[Example 15]", "IC50": 0.28}, {"smiles": "CNC(=O)c1cccc(Nc2ncnc(N3CC(Oc4ccc(F)cc4C)C3)n2)c1", "note": "[Example 16]", "IC50": 0.29}, {"smiles": "CCc1cccc(OC2CN(c3ncnc(Nc4cccc(C(=O)NC)c4)n3)C2)c1", "note": "[Example 17]", "IC50": 0.3}, {"smiles": "CNC(=O)c1cccc(Nc2ncnc(N3CC(Oc4cc(Cl)ccc4Cl)C3)n2)c1", "note": "[Example 18]", "IC50": 0.31}, {"smiles": "CNC(=O)c1cccc(Nc2nccc(N3CC(Oc4ccc(Cl)c(C)c4)C3)n2)c1", "note": "[Example 19]", "IC50": 0.31}, {"smiles": "CNC(=O)c1cccc(Nc2ncnc(N3CC(Oc4ccc(Cl)cc4C)C3)n2)c1", "note": "[Example 20]", "IC50": 0.32}, {"smiles": "CNC(=O)c1cccc(Nc2ncnc(N3CC(Oc4ccc(Cl)cc4F)C3)n2)c1", "note": "[Example 21]", "IC50": 0.33}, {"smiles": "CNC(=O)c1cccc(Nc2ncnc(N3CC(Oc4ccc5c(c4)CCC5)C3)n2)c1", "note": "[Example 22]", "IC50": 0.35}, {"smiles": "CNC(=O)c1cccc(Nc2ncnc(N3CCN(c4cccc(OC(F)(F)F)c4)CC3)n2)c1", "note": "[Example 23]", "IC50": 0.35}, {"smiles": "CNC(=O)c1cccc(Nc2ncnc(N3CCC(c4nc(-c5ccccc5)cs4)CC3)n2)c1", "note": "[Example 24]", "IC50": 0.38}, {"smiles": "CNC(=O)c1cccc(Nc2ncnc(N3CC(Oc4cccc(Cl)c4)C3)n2)c1", "note": "[Example 25]", "IC50": 0.38}, {"smiles": "CNC(=O)c1cccc(Nc2ncnc(N3CCC(c4csc(-c5ccccc5)n4)CC3)n2)c1", "note": "[Example 26]", "IC50": 0.39}, {"smiles": "CNC(=O)c1cc(Nc2ncnc(N3CCC(c4nc(-c5ccccc5)cs4)CC3)n2)ccc1Cl", "note": "[Example 27]", "IC50": 0.4}, {"smiles": "COCCNC(=O)c1cccc(Nc2ncnc(N3CC(Oc4ccc(Cl)cc4)C3)n2)c1", "note": "[Example 28]", "IC50": 0.4}, {"smiles": "CNC(=O)c1cccc(Nc2ncnc(N3CC(Oc4ccccc4Cl)C3)n2)c1", "note": "[Example 29]", "IC50": 0.42}, {"smiles": "CNC(=O)c1cccc(Nc2nccc(N3CC(Oc4ccc(Cl)cc4)C3)n2)c1", "note": "[Example 30]", "IC50": 0.43}, {"smiles": "CNC(=O)c1cccc(Nc2nccc(N3CC(Oc4ccc(OC)cc4)C3)n2)c1", "note": "[Example 31]", "IC50": 0.43}, {"smiles": "CNC(=O)c1cccc(Nc2ncnc(N3CC(Oc4ccc(C)cc4Cl)C3)n2)c1", "note": "[Example 32]", "IC50": 0.44}, {"smiles": "CNC(=O)c1cccc(Nc2ncnc(N3CC(Oc4ccccc4)C3)n2)c1", "note": "[Example 33]", "IC50": 0.45}, {"smiles": "CNC(=O)c1cccc(Nc2ncnc(N3CCN(c4ccc(C)cc4)CC3)n2)c1", "note": "[Example 34]", "IC50": 0.47}, {"smiles": "CNC(=O)c1cccc(Nc2ncnc(N3CC(Oc4ccc(C(F)(F)F)cc4)C3)n2)c1", "note": "[Example 35]", "IC50": 0.47}, {"smiles": "CNC(=O)c1cccc(Nc2ncnc(N3CCC(C(=O)c4ccc(Cl)cc4)CC3)n2)c1", "note": "[Example 36]", "IC50": 0.49}, {"smiles": "CNC(=O)c1cc(F)cc(Nc2ncnc(N3CC(Oc4ccc(Cl)cc4)C3)n2)c1", "note": "[Example 37]", "IC50": 0.49}, {"smiles": "COCCNC(=O)c1cccc(Nc2ncnc(N3CC(Oc4ccc(F)cc4)C3)n2)c1", "note": "[Example 38]", "IC50": 0.5}, {"smiles": "CNC(=O)c1cccc(Nc2ncnc(N3CC(Oc4ccc(Cl)c(Cl)c4)C3)n2)c1", "note": "[Example 39]", "IC50": 0.5}, {"smiles": "CNC(=O)c1cccc(Nc2ncnc(N3CC(COc4ccc(Cl)cc4)C3)n2)c1", "note": "[Example 40]", "IC50": 0.5}, {"smiles": "CNC(=O)c1cccc(Nc2ncnc(N3CCc4cc(OCC(F)(F)F)ccc4C3)n2)c1", "note": "[Example 41]", "IC50": 0.52}, {"smiles": "CNC(=O)c1cccc(Nc2ncnc(N3CC(Oc4ccc(C(C)C)cc4)C3)n2)c1", "note": "[Example 42]", "IC50": 0.57}, {"smiles": "CNC(=O)c1cccc(Nc2ncnc(N3CCN(c4cccc(C(F)(F)F)c4)CC3)n2)c1", "note": "[Example 43]", "IC50": 0.6}, {"smiles": "CNC(=O)c1cccc(Nc2ncnc(N3CCN(c4cccc(OC)c4)CC3)n2)c1", "note": "[Example 44]", "IC50": 0.61}, {"smiles": "CNC(=O)c1cccc(Nc2ncnc(N3CCC(Oc4ccccc4)CC3)n2)c1", "note": "[Example 45]", "IC50": 0.63}, {"smiles": "CNC(=O)c1cccc(Nc2ncnc(N3CC=C(c4csc(-c5ccccc5)n4)CC3)n2)c1", "note": "[Example 46]", "IC50": 0.63}, {"smiles": "COCCNC(=O)c1cccc(Nc2ncnc(N3CC(COc4ccc(Cl)cc4)C3)n2)c1", "note": "[Example 47]", "IC50": 0.64}, {"smiles": "CNC(=O)c1cccc(Nc2ncnc(N3CCC(Oc4cccc(F)c4)CC3)n2)c1", "note": "[Example 48]", "IC50": 0.65}, {"smiles": "CNC(=O)c1cccc(Nc2ncnc(N3CC(Oc4cccc(C)c4)C3)n2)c1", "note": "[Example 49]", "IC50": 0.65}, {"smiles": "CNC(=O)c1cc(Nc2ncnc(N3CC(Oc4ccc(Cl)cc4)C3)n2)ccc1N(C)C", "note": "[Example 50]", "IC50": 0.65}, {"smiles": "CNC(=O)c1cccc(Nc2ncnc(N3CC(Oc4ccc(Cl)cc4Cl)C3)n2)c1", "note": "[Example 51]", "IC50": 0.65}, {"smiles": "CNC(=O)c1cccc(Nc2ncnc(N3CC=C(c4nc(-c5ccccc5)cs4)CC3)n2)c1", "note": "[Example 52]", "IC50": 0.66}, {"smiles": "CNC(=O)c1cccc(Nc2ncnc(N3CCN(c4ccc(C)c(C)c4)CC3)n2)c1", "note": "[Example 53]", "IC50": 0.69}, {"smiles": "CNC(=O)c1cccc(Nc2ncnc(N3CC(Oc4ccc(F)cc4Cl)C3)n2)c1", "note": "[Example 54]", "IC50": 0.72}, {"smiles": "CNC(=O)c1cccc(Nc2nccc(N3CC(Oc4ccc(Cl)c(F)c4)C3)n2)c1", "note": "[Example 55]", "IC50": 0.74}, {"smiles": "CNC(=O)c1cccc(Nc2cccc(N3CC(Oc4ccc(F)cc4)C3)n2)c1", "note": "[Example 56]", "IC50": 0.75}, {"smiles": "CNC(=O)c1cc(Nc2ncnc(N3CC(Oc4ccc(F)cc4)C3)n2)ccc1F", "note": "[Example 57]", "IC50": 0.76}, {"smiles": "CNC(=O)c1cccc(Nc2ncnc(N3CCC(Oc4ccc(OC(F)(F)F)cc4)CC3)n2)c1", "note": "[Example 58]", "IC50": 0.76}, {"smiles": "CNC(=O)c1cccc(Nc2nccc(N3CC(Oc4ccc(Cl)c(Cl)c4)C3)n2)c1", "note": "[Example 59]", "IC50": 0.78}, {"smiles": "CNC(=O)c1cccc(Nc2ncnc(N3CCN(c4cccc(F)c4)CC3)n2)c1", "note": "[Example 60]", "IC50": 0.79}, {"smiles": "CNC(=O)c1cccc(Nc2ncnc(N3CC(Oc4ccc(F)cc4)C3)n2)c1", "note": "[Example 61]", "IC50": 0.81}, {"smiles": "CNC(=O)c1cccc(Nc2ncnc(N3CC(Oc4cccc(C(F)(F)F)c4)C3)n2)c1", "note": "[Example 62]", "IC50": 0.82}, {"smiles": "CNC(=O)c1cccc(Nc2ncnc(N3CC(Oc4c(Cl)cccc4Cl)C3)n2)c1", "note": "[Example 63]", "IC50": 0.82}, {"smiles": "CNC(=O)c1cc(Nc2ncnc(NCCCOc3ccc(OC(F)(F)F)cc3)n2)ccc1F", "note": "[Example 64]", "IC50": 0.83}, {"smiles": "CNC(=O)c1cccc(Nc2ncnc(N3CCC(c4ccccc4)CC3)n2)c1", "note": "[Example 65]", "IC50": 0.84}, {"smiles": "CNC(=O)c1cccc(Nc2ncnc(N3CC(Oc4cc(C)ccc4Cl)C3)n2)c1", "note": "[Example 66]", "IC50": 0.84}, {"smiles": "CNC(=O)c1cccc(Nc2ncnc(N3CC(COc4ccc(OC(F)(F)F)cc4)C3)n2)c1", "note": "[Example 67]", "IC50": 0.85}, {"smiles": "CNC(=O)c1cccc(Nc2ncnc(N3CCC(Oc4ccc(OC(F)(F)F)c(F)c4)CC3)n2)c1", "note": "[Example 68]", "IC50": 0.86}, {"smiles": "CNC(=O)c1cccc(Nc2ncnc(N3CCN(c4cccc(Cl)c4)CC3)n2)c1", "note": "[Example 69]", "IC50": 0.87}, {"smiles": "CNC(=O)c1cc(Nc2ncnc(N3CC(COc4ccc(Cl)cc4)C3)n2)ccc1F", "note": "[Example 70]", "IC50": 0.89}, {"smiles": "CNC(=O)c1cccc(Nc2ccnc(N3CC(Oc4ccc(F)cc4)C3)n2)c1", "note": "[Example 71]", "IC50": 0.9}, {"smiles": "CNC(=O)c1cccc(Nc2ncnc(N3CCc4c(C#N)cccc4C3)n2)c1", "note": "[Example 72]", "IC50": 0.9}, {"smiles": "CNC(=O)c1cccc(Nc2ncnc(N3CC(COc4ccc(Cl)cc4C)C3)n2)c1", "note": "[Example 73]", "IC50": 0.9}]}]}
